Laboratory results taken from patent publication US12077503B2, “Substituted cyclic amides and their use as herbicides” (FMC CORPORATION, priority 2015, dated 2024).

How the values were obtained:
Format in all cases: in vivo
[1] = system: Kochia (Kochia scoparia); experiment: Test A preemergence
Summary of the method: (§1)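 Greenhouse, ~10 d after spray; visual injury vs untreated controls, 0 = no effect, 100 = complete control. Preemergence: directed soil spray over planted seeds. Postemergence: plants 2–10 cm, 1–2 leaf stage. Loam/sand blend. Compound in non-phytotoxic solvent with surfactant.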

[2] = system: barnyardgrass (Echinochloa crus-galli); experiment: Test A preemergence
Summary of the method: as §1

[3] = system: giant foxtail (Setaria faberii); experiment: Test A preemergence
Summary of the method: as §1

[4] = system: pigweed (Amaranthus retroflexus); experiment: Test A preemergence
[5] = system: ragweed (common ragweed, Ambrosia elatior); experiment: Test A preemergence
Summary of the method: as §1

[6] = system: ryegrass, Italian (Italian ryegrass, Lolium multiflorum); experiment: Test A preemergence
Summary of the method: as §1

[7] = system: Galium (catchweed bedstraw, Galium aparine); experiment: Test A postemergence
Summary of the method: as §1

[8] = system: Kochia (Kochia scoparia); experiment: Test A postemergence
Summary of the method: as §1

[9] = system: barnyardgrass (Echinochloa crus-galli); experiment: Test A postemergence
Summary of the method: as §1

[10] = system: blackgrass (Alopecurus myosuroides); experiment: Test A postemergence
Summary of the method: as §1

[11] = system: corn (Zea mays); experiment: Test A postemergence
Summary of the method: as §1

[12] = system: giant foxtail (Setaria faberii); experiment: Test A postemergence
Summary of the method: as §1

[13] = system: pigweed (Amaranthus retroflexus); experiment: Test A postemergence
Summary of the method: as §1

[14] = system: ragweed (common ragweed, Ambrosia elatior); experiment: Test A postemergence
Summary of the method: as §1

[15] = system: ryegrass, Italian (Italian ryegrass, Lolium multiflorum); experiment: Test A postemergence
Summary of the method: as §1

[16] = system: wheat (Triticum aestivum); experiment: Test A postemergence
Summary of the method: as §1

[17] = system: barnyardgrass (Echinochloa crus-galli); experiment: Test B flooded paddy test; details: Flood, 250 g ai/ha; 0 to 100 scale where 0 is no effect and 100 is complete control; 13 to 15 d
Summary of the method: (§2)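 Plants at 2-leaf stage flooded to 3 cm above soil, with compounds applied directly to paddy water and that depth maintained. Plants kept in greenhouse 13–15 d. Visual rating versus controls on a 0 (no effect) to 100 (complete control) scale.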

[18] = system: ducksalad (Heteranthera limosa); experiment: Test B flooded paddy test; details: Flood, 250 g ai/ha; 0 to 100 scale where 0 is no effect and 100 is complete control; 13 to 15 d
Summary of the method: as §2

[19] = system: rice (Oryra sativa); experiment: Test B flooded paddy test; details: Flood, 250 g ai/ha; 0 to 100 scale where 0 is no effect and 100 is complete control; 13 to 15 d
Summary of the method: as §2

[20] = system: sedge, umbrella (small-flower umbrella sedge, Cyperus difformis); experiment: Test B flooded paddy test; details: Flood, 250 g ai/ha; 0 to 100 scale where 0 is no effect and 100 is complete control; 13 to 15 d
Summary of the method: as §2

[21] = 125 g ai/ha, preemergence, 0 to 100 scale (0 no effect, 100 complete control)
[22] = Preemergence, 500 g ai/ha, 0 is no effect, 100 is complete control
[23] = 500 g ai/ha, postemergence, 0 to 100 scale, 0 no effect, 100 complete control
[24] = Postemergence, 125 g ai/ha, visual injury, 0 to 100 scale (0 no effect, 100 complete control), approx. 10 d
[25] = 125 g ai/ha, Preemergence, visual injury after approximately 10 d, 0 to 100 scale where 0 is no effect and 100 is complete control
[26] = Preemergence, 500 g ai/ha, visual injury approx. 10 d
[27] = 125 g ai/ha, postemergence, visual injury rating on 0 to 100 scale (0 no effect, 100 complete control), approx. 10 d
[28] = Postemergence, 500 g ai/ha, 0 to 100 scale where 0 is no effect and 100 is complete control
[29] = 500 g ai/ha, preemergence, 0 to 100 scale, 0 = no effect, 100 = complete control
[30] = 125 g ai/ha, postemergence, visual rating after approx. 10 d, 0 to 100 scale (0 no effect, 100 complete control)
[31] = 500 g ai/ha, postemergence, visual injury, 0 to 100 scale (0 no effect, 100 complete control), approx. 10 d

SMILES: CC(C)Oc1cccc(C2CN(C)C(=O)C2C(=O)Nc2ccc(F)cc2F)c1 (stereo not drawn) [Compound 378]
- Plant response rating, Kochia [1, 21]: 80
- Kochia plant response rating (0 to 100 scale) [1, 22]: 90
- Plant response rating, Barnyardgrass [2, 21]: 20
- Barnyardgrass plant response rating (0 to 100 scale) [2, 22]: 90
- Plant response rating, Foxtail, Giant [3, 21]: 90
- Foxtail, Giant plant response rating (0 to 100 scale) [3, 22]: 100
- Plant response rating, Pigweed [4, 21]: 60
- Pigweed plant response rating (0 to 100 scale) [4, 22]: 80
- Plant response rating, Ragweed [5, 21]: 10
- Ragweed plant response rating (0 to 100 scale) [5, 22]: 50
- Plant response rating, Ryegrass, Italian [6, 21]: 50
- Ryegrass, Italian plant response rating (0 to 100 scale) [6, 22]: 80
- Plant response rating, Galium [7, 23]: 70
- Plant response rating, Galium [7, 24]: 60
- Plant response rating, Kochia [8, 23]: 70
- Plant response rating, Kochia [8, 24]: 50
- Plant response rating, Barnyardgrass [9, 23]: 90
- Plant response rating, Barnyardgrass [9, 24]: 80
- Plant response rating, Blackgrass [10, 23]: 70
- Plant response rating, Blackgrass [10, 24]: 50
- Plant response rating, Corn [11, 23]: 80
- Plant response rating, Corn [11, 24]: 50
- Plant response rating, Foxtail, Giant [12, 23]: 80
- Plant response rating, Foxtail, Giant [12, 24]: 80
- Plant response rating, Pigweed [13, 23]: 50
- Plant response rating, Pigweed [13, 24]: 0
- Plant response rating, Ragweed [14, 23]: 50
- Plant response rating, Ragweed [14, 24]: 20
- Plant response rating, Ryegrass, Italian [15, 23]: 70
- Plant response rating, Ryegrass, Italian [15, 24]: 40
- Plant response rating, Wheat [16, 23]: 50
- Plant response rating, Wheat [16, 24]: 40
- Plant response rating, Barnyardgrass [17]: 70
- Plant response rating, Ducksalad [18]: 30
- Plant response rating, Rice [19]: 0
- Plant response rating, Sedge, Umbrella [20]: 0

SMILES: O=C1NCC(c2cccc(F)c2F)C1C(=O)Nc1ccc(F)cc1F (stereo not drawn) [Compound 495]
- Plant response rating, Kochia [1, 25]: 20
- Kochia plant response rating (0 to 100 scale, 0 is no effect, 100 is complete control) [1, 26]: 30
- Plant response rating, Barnyardgrass [2, 25]: 30
- Barnyardgrass plant response rating (0 to 100 scale, 0 is no effect, 100 is complete control) [2, 26]: 90
- Plant response rating, Foxtail, Giant [3, 25]: 90
- Foxtail, Giant plant response rating (0 to 100 scale, 0 is no effect, 100 is complete control) [3, 26]: 90
- Plant response rating, Pigweed [4, 25]: 0
- Pigweed plant response rating (0 to 100 scale, 0 is no effect, 100 is complete control) [4, 26]: 20
- Plant response rating, Ragweed [5, 25]: 0
- Ragweed plant response rating (0 to 100 scale, 0 is no effect, 100 is complete control) [5, 26]: 0
- Plant response rating, Ryegrass, Italian [6, 25]: 0
- Ryegrass, Italian plant response rating (0 to 100 scale, 0 is no effect, 100 is complete control) [6, 26]: 20
- Galium plant response rating [7, 27]: 0
- Plant response rating, Galium [7, 28]: 0
- Kochia plant response rating [8, 27]: 30
- Plant response rating, Kochia [8, 28]: 30
- Barnyardgrass plant response rating [9, 27]: 20
- Plant response rating, Barnyardgrass [9, 28]: 80
- Blackgrass plant response rating [10, 27]: 0
- Plant response rating, Blackgrass [10, 28]: 20
- Corn plant response rating [11, 27]: 0
- Plant response rating, Corn [11, 28]: 30
- Foxtail, Giant plant response rating [12, 27]: 20
- Plant response rating, Foxtail, Giant [12, 28]: 70
- Pigweed plant response rating [13, 27]: 0
- Plant response rating, Pigweed [13, 28]: 0
- Ragweed plant response rating [14, 27]: 0
- Plant response rating, Ragweed [14, 28]: 0
- Ryegrass, Italian plant response rating [15, 27]: 0
- Plant response rating, Ryegrass, Italian [15, 28]: 20
- Wheat plant response rating [16, 27]: 0
- Plant response rating, Wheat [16, 28]: 20
- Plant response rating, Barnyardgrass [17]: 35
- Plant response rating, Ducksalad [18]: 75
- Plant response rating, Rice [19]: 0
- Plant response rating, Sedge, Umbrella [20]: 0

SMILES: O=C1NCC(c2csc(Br)c2)C1C(=O)Nc1ccccc1F (stereo not drawn) [Compound 648]
- Plant response rating, Kochia [1, 25]: 0
- Plant response rating, Kochia [1, 29]: 50
- Plant response rating, Barnyardgrass [2, 25]: 70
- Plant response rating, Barnyardgrass [2, 29]: 90
- Plant response rating, Foxtail, Giant [3, 25]: 60
- Plant response rating, Foxtail, Giant [3, 29]: 80
- Plant response rating, Pigweed [4, 25]: 0
- Plant response rating, Pigweed [4, 29]: 40
- Plant response rating, Ragweed [5, 25]: 0
- Plant response rating, Ragweed [5, 29]: 20
- Plant response rating, Ryegrass, Italian [6, 25]: 30
- Plant response rating, Ryegrass, Italian [6, 29]: 40
- Plant response rating, Galium [7, 30]: 20
- Plant response rating, Galium [7, 31]: 60
- Plant response rating, Kochia [8, 30]: 0
- Plant response rating, Kochia [8, 31]: 0
- Plant response rating, Barnyardgrass [9, 30]: 70
- Plant response rating, Barnyardgrass [9, 31]: 80
- Plant response rating, Blackgrass [10, 30]: 30
- Plant response rating, Blackgrass [10, 31]: 50
- Plant response rating, Corn [11, 30]: 0
- Plant response rating, Corn [11, 31]: 0
- Plant response rating, Foxtail, Giant [12, 30]: 10
- Plant response rating, Foxtail, Giant [12, 31]: 50
- Plant response rating, Pigweed [13, 30]: 30
- Plant response rating, Pigweed [13, 31]: 50
- Plant response rating, Ragweed [14, 30]: 0
- Plant response rating, Ragweed [14, 31]: 30
- Plant response rating, Ryegrass, Italian [15, 30]: 30
- Plant response rating, Ryegrass, Italian [15, 31]: 50
- Plant response rating, Wheat [16, 30]: 0
- Plant response rating, Wheat [16, 31]: 0
- Plant response rating, Barnyardgrass [17]: 20
- Plant response rating, Ducksalad [18]: 100
- Plant response rating, Rice [19]: 20
- Plant response rating, Sedge, Umbrella [20]: 0
